Laboratory results from patent publication US20040259819A1, “Novel heterocyclic fluoroglycoside derivatives, medicaments containing these compounds, and the use thereof” (Aventis Pharma Deutschland GmbH, priority 2002, published 2004).

Biological target: T1, SGLT (Oryctolagus cuniculus, UniProt P11170)
T1 construct: To prepare brush border membranes from rabbit small intestine, rabbits were sacrificed; from tissue; host or cells: rabbit small intestine mucosa, brush border membrane vesicles (Mg2+ precipitation)
T1 sequence (P11170 1-662): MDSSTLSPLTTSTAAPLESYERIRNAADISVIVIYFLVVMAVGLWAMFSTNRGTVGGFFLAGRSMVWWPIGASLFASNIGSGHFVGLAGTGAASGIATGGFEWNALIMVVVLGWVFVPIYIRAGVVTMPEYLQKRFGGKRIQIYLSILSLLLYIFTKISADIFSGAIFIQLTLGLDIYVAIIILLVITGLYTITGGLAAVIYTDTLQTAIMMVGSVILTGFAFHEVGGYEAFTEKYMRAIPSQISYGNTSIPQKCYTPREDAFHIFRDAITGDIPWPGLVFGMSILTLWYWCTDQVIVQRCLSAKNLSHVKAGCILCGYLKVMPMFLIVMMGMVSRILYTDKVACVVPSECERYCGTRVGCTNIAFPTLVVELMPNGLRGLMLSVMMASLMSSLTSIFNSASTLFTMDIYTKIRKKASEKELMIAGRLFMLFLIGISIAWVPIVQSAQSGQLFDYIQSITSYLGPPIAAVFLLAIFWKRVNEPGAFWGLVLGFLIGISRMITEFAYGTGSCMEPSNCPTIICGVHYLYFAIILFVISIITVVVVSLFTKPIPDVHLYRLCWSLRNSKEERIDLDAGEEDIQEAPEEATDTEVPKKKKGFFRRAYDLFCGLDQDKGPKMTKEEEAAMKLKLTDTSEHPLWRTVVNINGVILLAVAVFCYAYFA
Assay: Glucose uptake transport assay on rabbit small intestine brush border membrane vesicles
Type: biochemical
Conditions: uptake of 10 μM [14C]D glucose into rabbit small intestine brush border membrane vesicles, 15 seconds, 30° C., membrane filtration method
Description: Preparation of brush border membrane vesicles from the small intestine of rabbits, rats and pigs
Preparation of brush border membrane vesicles from the intestinal cells of the small intestine was carried out by the so-called Mg^2+ precipitation method. The mucosa of the small intestine was scraped off and suspended in 60 ml of ice-cold Tris/HCl buffer (pH 7.1)/300 mM mannitol, 5 mM EGTA. Dilution to 300 ml with ice-cold distilled water was followed by homogenization with an Ultraturrax (18 shaft, IKA Werk Staufen, FRG) at 75% of the max. power for 2×1 minute, while cooling in ice. After addition of 3 ml of 1M MgCl2 solution (final concentration 10 mM), the mixture is left to stand at 0° C. for exactly 15 minutes. Addition of Mg^2+ causes the cell membranes to aggregate and precipitate with the exception of the brush border membranes. After centrifugation at 3 000×g (5 000 rpm, SS-34 rotor) for 15 minutes, the precipitate is discarded and the supernatant, which contains the brush border membranes, is centrifuged at 26 700×g (15 000 rpm, SS-34 rotor) for 30 minutes. The supernatant is discarded, and the precipitate is rehomogenized in 60 ml of 12 mM Tris/HCl buffer (pH 7.1)/60 mM mannitol, 5 mM EGTA using a Potter Elvejhem homogenizer (Braun, Melsungen, 900 rpm, 10 strokes). Addition of 0.1 ml of 1M MgCl2 solution and incubation at 0° C. for 15 minutes is followed by centrifugation again at 3 000×g for 15 minutes. The supernatant is then centrifuged again at 46 000×g (20 000 rpm, SS-34 rotor) for 30 minutes. The precipitate is taken up in 30 ml of 20 mM Tris/Hepes buffer (pH 7.4)/280 mM mannitol and homogeneously resuspended by 20 strokes in a Potter Elvejhem homogenizer at 1 000 rpm. After centrifugation at 48 000×g (20 000 rpm, SS-34 rotor) for 30 minutes, the precipitate was taken up in 0.5 to 2 ml of Tris/Hepes buffer (pH 7.4)/280 mM mannitol (final concentration 20 mg/ml) and resuspended using a tuberculin syringe with a 27 gauge needle. […]
The uptake of [^14C]-labeled glucose into brush border membrane vesicles was measured by the membrane filtration method. […]

Compound	IC50 [nM]
COc1ccc(Cc2sc3ccccc3c2OC2OC(CO)C(F)C(O)C2O)cc1 (stereo not drawn) [Example 2]	400
COc1ccc(Cc2sccc2OC2OC(CO)C(F)C(O)C2O)cc1 (single isomer, unassigned) [Example 3]	300
COc1ccc(Cc2sccc2OC2OC(CO)C(F)C(O)C2O)cc1 (single isomer, unassigned) [Example 1]	4000
